Laboratory results taken from patent US20150290105A1, “COMPOSITION COMPRISING SYRINGARESINOL FOR IMPROVING THE SKIN” (AMOREPACIFIC CORPORATION, priority 2011, published 2015).

How the values were obtained:
[1] = Skin wrinkle formation after UVB in hairless mouse; type: in vivo, hairless mice (SKH: HR-1); settings: UVB 180 mJ/cm^2
Description: 30-week-old female hairless mice (SKH: HR-1) weighing 25-39 g were purchased from Charles River Laboratories (Wilmington, Mass., USA). The mice were accustomed to the laboratory environment for a week and then grouped into normal groups and test substance-treated groups, with 5 mice per each group. The mice were allowed free access to water and feed under the condition of 12-hour light/dark cycles, 23.2° C. and 55.10% humidity.
For the test substance-treated groups, a patch of 1% syringaresinol dissolved in a solvent (1,3-butylene glycol:ethanol=7:3) was applied 2 times for 2 days or 200 mg/kg syringaresinol was orally administered. The control groups were treated in the same way using the solvent of the same amount instead of syringaresinol. The syringaresinol-applied group, syringaresinol oral administration group and control groups were exposed to UVB of 180 mJ/cm^2. Before and after the UV radiation, skin wrinkles on the exposed part were taken with replica and measured using the Visiometer system (C+K).
Change (%)=[(Tdi−Tdo)/(Tdo)]×100 [Equation 4]
Tdi: value measured after UV radiation
Tdo: value measured before UV radiation

[2] = test system: SIRT1; test: SIRT1 expression promoting effect in human fibroblasts; type: cell-based; settings: HDF cells, 20, 50 or 100 μM, 24 hours, FIG. 4
Description: Human keratinocyte HaCaT cells or human fibroblast HDF cells were cultured under the condition of 37° C. and 5% CO2 in DMEM ((Gibco 1210-0038)) containing 10% fetal bovine serum.
The cultured cells were treated with syringaresinol dissolved in DMSO at a concentration of 20, 50 or 100 μM for 24 hours. Separately from this, the cells were treated with DMSO of 1/1000 of the volume of the culture medium as a negative control. After treating with the test substance, the cells were washed twice with cold PBS and RNA was extracted using TRIzol reagent (Invitrogen). Then, cDNA was synthesized using 1 μg/μL of the extracted RNA and a reverse transcription system (Promega). The expression pattern of the SIRT1 and GAPDH genes was monitored using the synthesized cDNA and predesigned primers and probes (Applied Biosystems; SIRT1, Hs01009006_ml; GAPDH, Hs99999905_ml). PCR reaction and analysis were carried out using the Rotor-Gene 3000 system (Corbett Research, Sydney, Australia). The result is shown in FIG. 3 (keratinocytes) and FIG. 4 (fibroblasts).

[3] = Free radical scavenging ability (DPPH); settings: 37° C. 30 minutes, FIG. 2
Description: A radical solution was prepared by dissolving 100 µM diphenylpicrylhydrazyl (DPPH), composed of stable free radicals, in 99% ethanol. A reaction solution was prepared by dissolving syringaresinol in distilled water with different concentrations (pg/mL) and mixing the syringaresinol solution with the radical solution. A reaction solution not containing syringaresinol was used as a negative control and a reaction solution containing vitamin C (Vit C) was used as a positive control. After sufficiently reacting at 37° C. for 30 minutes, radical scavenging ability was evaluated by measuring absorbance at 515 nm. The radical scavenging ability was calculated relative to the negative control group as 100.

[4] = test system: involucrin; test: Involucrin expression promoting effect in human keratinocytes; type: cell-based; settings: HaCaT cells, FIG. 5
Description: Human keratinocyte HaCaT cells were cultured in substantially the same manner as in Test Example 10.
cDNA was synthesized in substantially the same manner as in Test Example 10 and the expression pattern of the filaggrin, involucrin and GAPDH genes was monitored substantially the same manner as in Test Example 10 using the synthesized cDNA and predesigned primers and probes (Applied Biosystems; […]; GAPDH, Hs99999905_ml).

[5] = test system: Melanocytes (Mel-Ab cells); test: Test of cytotoxicity (crystal violet cell viability) in mouse melanocytes; type: cell-based; settings: 24 hours
Description: Cytotoxicity was tested for syringaresinol in mouse melanocytes as follows.
Melanocytes (Mel-Ab cells) derived from C57BL/6 (treated with Dooley et al.'s method) were cultured under the condition of 37° C. and 5% CO2 in Dulbecco's modified Eagle's medium (DMEM) containing 10% fetal bovine serum, 100 nM 12-O-tetradecanoylphorbol-13-acetate and 1 nM cholera toxin. The cultured Mel-Ab cells were detached with 0.25% trypsin-EDTA, cultured in a 24-well plate to a concentration of 10^5 cells/well and then treated with the syringaresinol prepared in Example. After culturing for 24 hours, the cells were washed with phosphate buffered saline (PBS, pH 7.2) and then stained using 0.1% crystal violet (Sigma) and 10% ethanol (EtOH) for 5 minutes at room temperature. After completely removing free crystal violet, the cells were washed 3 times with PBS (pH 7.2). The stained cells were treated with 95% ethanol (EtOH) for 1 hour at room temperature to extract crystal violet. The absorbance of the extract was measured at 540 nm using the Lambda 25 spectrophotometer (PerkinElmer) and cell viability (%) was calculated according to Equation 1.
Cell viability (%)=(A/B)×100 [Equation 1]
A: absorbance in the presence of syringaresinol
B: absorbance in the absence of syringaresinol

[6] = Transepidermal water loss (TEWL) in hairless mouse; type: in vivo, hairless mice (SKH: HR-1); settings: 3 weeks, FIG. 8
Description: 30-week-old female hairless mice (SKH: HR-1) weighing 25-39 g were purchased from Charles River Laboratories (Wilmington, Mass., USA). The mice were accustomed to the laboratory environment for a week and then grouped into normal groups and test substance-treated groups, with 5 mice per each group. The mice were allowed free access to water and feed under the condition of 12-hour light/dark cycles, 23.2° C. and 55.10% humidity. For the test substance-treated groups, a patch of 1% syringaresinol dissolved in a solvent (1,3-butylene glycol:ethanol=7:3) was applied 2 times for 2 days or 200 mg/kg syringaresinol was orally administered. The control groups were treated in the same way using the solvent of the same amount instead of syringaresinol. […] Before and after the UV radiation, skin wrinkles on the exposed part were taken with replica and measured using the Visiometer system (C+K). 3 weeks after the onset of experiment, transepidermal water loss (TEWL) was measured on the back part of the hairless mouse of each group using a wireless vapometer (Delfin Technologies, Ltd., SWL 4102). […] Transepidermal water loss is the quantity of water that passes from inside the body through the skin and a larger value means poor skin moisturization ability and damaged skin barrier function. […]

COc1cc(C2OCC3C(c4cc(OC)c(O)c(OC)c4)OCC23)cc(OC)c1O (centres unmarked) [Syringaresinol, syringaresinol]
Increase of skin wrinkles (Change %) ([1]; application of 1% patch, control 230±35%): 121±35%
Increase of skin wrinkles (Change %) ([1]; oral administration 200 mg/kg, control 224±45%): 123±25%
Increase of SIRT1 expression [2]: ≥ 4 times
Free radical scavenging ability [3]: scavenge free radicals in a concentration-dependent manner and the effect is superior to that of vitamin C
Expression of involucrin [4]: increases the expression
Cell viability (%) [5]: 98.6%
UV-induced transepidermal water loss (TEWL) ([6]; application): decrease in UV-induced transepidermal water loss
UV-induced transepidermal water loss (TEWL) ([6]; oral administration): decrease in UV-induced transepidermal water loss
